These results are taken from patent publication US11952603B2, “Method for reducing or inactivating viral and microbial content in the processes for the manufacture of pancreatin” (SCIENTIFIC PROTEIN LABORATORIES, LLC, priority 2015, dated 2024).

The subject of one assay is viruses. As to conditions: cited from earlier work.
The test system of assay [1] is Gram-positive and Gram negative bacteria, fungi and yeasts. As to conditions: at concentrations of <100 ppm; cited from earlier work.
The subject of the next assay is vegetative bacteria. The following applies: within 1 min at 25° C., 1.3 mmol/L of PAA; cited from earlier work.
The subject of assay [2] is Encephalomycarditis Virus (EMC). It is filed as cell-based, Encephalomyocarditis virus. As to conditions: 10,000 ppm PAA.
A further assay deals with virus. The assay can be described thus: Transmission electron microscopy of gland tissue and pancreatin powder for virus. The following applies: 20,000 ppm PAA for 30 minutes. Here is the method: Electron Microscopic Study: Referring to FIGS. 4A-4D, transmission electron microscopy (TEM) and scanning electron microscopy (SEM) were performed to visualize the presence of bacteria and viruses on surface of pancreas gland tissue and pancreatin powder treated with differing concentration of PAA and were compared to non-treated (control) samples.
Pancreas gland tissues treated with PAA and untreated samples as well as resulting pancreatin powder produced with PAA treatment were analyzed with TEM and SEM. For SEM samples were coated with an ultrathin coating of electrically conducting material, deposited on the sample by low-vacuum sputter coating evaporation. A conductive material in current coating used was gold to observe bacteria and viruses. A ZEISS LEO-1530 DSM scanning electron microscope was used to produce the images of FIGS. 4A and 4B. […] (scale bar is 2 μm). […] Viruses are very small in size (15 to 100 nm) and were not possible to observe in SEM. For TEM the pancreas gland tissue and pancreatin powder sample treated with 20,000 ppm PAA for 30 minutes and control samples were stained with 2% uranyl acetate (aq). A Model H-7600 HITACHI transmission electron microscope, Version 3.01, was used to produces the images of FIGS. 4C and 4D. Three TEM slides of each treatment were observed. Each TEM slide had 400 grids to observe. A minimum of 10-15 grids per slide were observed.

For assay [3], the system named is Porcine circovirus type 2 (PCV 2). The assay can be described thus: Infectious PCV-2 titer by cell based in vitro assay using PK-13 cells (Large Volume Plating, interference assay). As to conditions: 500 and 2000 ppm, endogenous virus.
For assay [4], the system named is Murine Minute Virus (MMV). The experiment in a line: Viral clearance of spiked MMV on PAA-treated glands, TCID50 endpoint assay. It counts as cell-based. As to conditions: 10,000 ppm PAA, 30 min sample vs Recovery Control 0 minute.
The subject of assay [5] is aerobic microorganisms (TAMC). The experiment in a line: Total Aerobic Microbial Count (TAMC) of porcine pancreas glands after PAA treatment. Here is the method:
For the preparation of pancreatin, 3 kg thawed whole porcine pancreas glands and 3 kg of porcine pancreas glands cut into approximately 2-inch strips were submerged in two different concentrations of PAA, 500 ppm and 2000 ppm for 10 and 15 minutes at room temperature (18-22° C.). Treated glands were rinsed with process water and placed into a sterile sample bag and stored at −20° C. for freezing not less than 12 hours. A total of 6 samples were tested per run. The preparation was executed 2 times. […] Whole gland (A)—500 ppm; • 2. Whole gland (B)—2000 ppm; • 3. Strip gland (A)—500 ppm; • 4. Strip gland (B)—2000 ppm; • 5. Whole gland (C)—No treatment-Control; • 6. Strip gland (C)—No treatment-Control. For all result see Tables 1 and 2.
The strip glands remained consistent.
For the preparation of pancreatin, 3 kg thawed whole glands and 3 kg of milled gland were submerged in two different concentrations of PAA, 500 ppm and 2000 ppm for 10 and 15 minutes at room temperature (18-22° C.). Treated glands were rinsed with purified water and placed into a sterile sample bag and stored at −20° C. for freezing not less than 12 hours. A total of 6 samples were tested per run. The preparation was executed 2 times. Milled glands were difficult to process due to slurry being formed after PAA treatment. […] Whole gland (A)—500 ppm; • 2. Whole gland (B)—2000 ppm; • 3. Milled gland (A)—500 ppm; • 4. Milled gland (B)—2000 ppm; • 5. Whole gland (C)—No treatment-Control; • 6. Milled gland (C)—No treatment-Control. For all results see table 3 and 4.
The TAMC results for both the whole glands and milled before PAA treatments were similar with 1400 and 1100 CFU/g. After 500 ppm and 2000 ppm PAA treatment, the TAMC results for the treated whole glands were exactly the same, 10 CFU/g. The milled glands were not tested after PAA treatment. See results in table 3.

Where [6] appears, read: Strip Gland, Run # 1, Example 1.
[7] abbreviates: Whole Gland, Run # 1, Example 1.
[8] abbreviates: Whole Gland, Run # 2, Example 1.

Like-named read-outs stand apart in the source and are kept apart here.

Consider `CC(=O)OO` [PAA, Peracetic acid], for which, in the assay with viruses, the “dosage range for viruses” value is recorded as 100-40,000 ppm. Further, in assay [1], the time to inactivate result is “less than 5 minutes”. The “reduction factor in the number of vegetative bacteria” value in the assay on vegetative bacteria is 10^6. For the same compound, the EMC reduction factor result in assay [2] (at 15 minutes) is listed as “about 1.75 log10”; in assay [2] (calculated using the 30 min sample), “about 0.8 log10”. Moreover, in the assay with virus, the “virus in pancreas gland tissue (TEM)” value is “No virus was observed”. Also, in assay [3], the “effect of PAA surface treatment in PCV-2 infectivity test” value is on record as “no discernable effect”. The MMV reduction factor in assay [4] is 3.0±0.9 Log10. Moreover, the “TAMC After Treatment at 500 ppm” value was determined as 130 CFU/g in assay [5] (setting [6]), 90 CFU/g in assay [5] (setting [7]) and 30 CFU/g in assay [5] (setting [8]). In addition, the “TAMC After Treatment at 2000 ppm” value in assay [5] (setting [6]) is given as 45 CFU/g; in assay [5] (setting [7]), 50 CFU/g; in assay [5] (setting [8]) it was 10 CFU/g. The “TAMC After 500 ppm PAA Treatment” value in assay [5] (Whole Gland, Example 2) is on record as 10 CFU/g. For the same compound, the “TAMC After 2000 ppm PAA Treatment” value in assay [5] (Whole Gland, Example 2) is reported as 10 CFU/g.
